Results reported in ChEMBL document CHEMBL3414510 (J Med Chem, 2015).

Columns and labels:
Liver = assay: Metabolic stability in CD1 mouse liver microsomes after 30 mins by LC/MS analysis; assay type: ADME; conditions: 0.5 h
[1] = Permeability across human Caco2 cells; assay type: ADME, cell-based; conditions: caco-2
Mus musculus = assay: Clearance in Balb/C mouse at 5 mg/kg, iv and po relative to liver blood flow; assay type: ADME, organism-based; parameters: dose 5 mg/kg, route oral; conditions: in vivo

## Cn1cc(CCn2cnc(-c3cnn(C)c3)c2-c2ccc(C#N)cc2)cn1
Liver
  Stability: Stable
[1]
  permeability: permeable
Mus musculus
  CL: 50%
